Measured values from US9315493B2, “Phenylpyridine derivative and drug containing same” (KOWA COMPANY, LTD., priority 2011, dated 2016).

Experiments:
[1] = biological target: angiotensin II type 1 receptor (Oryctolagus cuniculus (Rabbit), UniProt P34976); assay: Angiotensin II antagonistic activity in isolated rabbit blood vessels (angiotensin II-induced contraction of thoracic aorta ring); details: test compound 0.1 μM, angiotensin II 10 nM-induced contraction, read-out: Rate (%) of inhibiting angiotensin II activity at concentration of 0.1 μM
Sequence of angiotensin II type 1 receptor (P34976 whole entry, the tested form may be a part): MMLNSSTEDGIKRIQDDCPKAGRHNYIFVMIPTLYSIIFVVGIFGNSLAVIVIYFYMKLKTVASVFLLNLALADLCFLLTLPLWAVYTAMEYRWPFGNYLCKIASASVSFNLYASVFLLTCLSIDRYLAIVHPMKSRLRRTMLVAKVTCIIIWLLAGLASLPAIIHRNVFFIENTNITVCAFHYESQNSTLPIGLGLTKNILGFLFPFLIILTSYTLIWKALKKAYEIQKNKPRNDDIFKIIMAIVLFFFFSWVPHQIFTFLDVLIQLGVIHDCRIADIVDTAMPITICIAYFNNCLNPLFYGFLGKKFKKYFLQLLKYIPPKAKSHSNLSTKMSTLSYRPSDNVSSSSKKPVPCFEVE
Protocol: By using a specimen of isolated rabbit blood vessels, antagonistic activity of the compounds of the invention against angiotensin II type 1 receptor was calculated from a dose-response curve of angiotensin II-induced blood vessel contraction. Specifically, the specimen of thoracic aorta ring of a rabbit (New Zealand White: male, 2.4 to 3.0 kg) was suspended in a rmagnus bath filled with Krebs-Henseleite buffer (composition: 118 mM NaCl, 4.7 mM KCl, 2.55 mM CaCl2, 1.18 mM MgSO4, 1.18 mM KH2PO4, 24.88 mM NaHCO3, and 11.1 mM D-glucose), and angiotensin II (10 n M)-induced contraction was obtained in the presence of each test compound (1 n mol/L to 10 μmol/L). During the measurement, the inside temperature of the magnus bath was maintained at 37° C. and the bath was continuously ventilated with a sufficient amount of mixed gas (95% O2 and 5% CO2). The angiotensin II-induced contraction was converted into a relative value (%) that is based on the angiotensin II (0.1 μM)-induced contraction in the absence of the test compound.

human PPARγ2 = human PPARγ2 (Homo sapiens (Human), UniProt P37231); assay: PPARγ activation effect, Gal4-PPARγ2 LBD luciferase transfection assay in COS7 cells; type: cell-based; details: Gal4-human PPARγ2 LBD chimera, luciferase reporter; for EC50: 16 hours, rosiglitazone = 100%
Sequence of human PPARγ2 (P37231 182-505): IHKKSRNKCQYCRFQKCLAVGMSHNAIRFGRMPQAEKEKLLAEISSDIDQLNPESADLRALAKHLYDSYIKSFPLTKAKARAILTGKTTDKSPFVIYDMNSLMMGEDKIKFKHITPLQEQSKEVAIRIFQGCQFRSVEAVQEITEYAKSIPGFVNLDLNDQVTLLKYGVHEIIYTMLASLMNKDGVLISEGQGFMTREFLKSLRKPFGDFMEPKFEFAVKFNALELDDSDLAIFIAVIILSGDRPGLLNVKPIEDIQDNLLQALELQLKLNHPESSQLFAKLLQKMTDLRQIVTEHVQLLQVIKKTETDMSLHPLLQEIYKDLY
Protocol: The agonistic activity of the compounds of the invention on PPARγ was measured based on the transfection assay using COS7 cells (DS Pharma Biomedical Co., Ltd., Osaka, Japan), which are the cell line derived from the kidney of the African green monkey. COS7 cells were cultured under 5% CO2 concentration, and DMEM medium containing 10% fetal bovine serum, glutamic acid, and antibiotics was used as a medium.
As an expression vector, a chimera in which DNA binding domain of Gal4, which is a yeast transcription factor, and ligand binding domain of human PPARγ2 are fused, i.e., a fused product between the amino acids 1 to 147 of Gal4 transcription factor and the amino acids 182 to 505 of human PPARγ2, was used. Furthermore, as a reporter vector, a firefly luciferase containing five copies of Gal4 recognition sequence in the promoter region was used. Plasmid transfection to the cells was performed according to a method which uses jetPEI (trade name, manufactured by Funakoshi Co., Ltd., Tokyo, Japan). Furthermore, β-galactosidase expression vector was employed as an internal standard.
After the transfection into the cells, the medium was replaced with a DMEM medium (containing 1% serum) added with the test compound, and the cells were further cultured for 16 hours. After that, the luciferase activity and β-galactosidase activity in the cell lysis solution were measured.
Meanwhile, for the present test, dimethylsulfoxide (DMSO) was used for dissolution and dilution of the test compounds, and during the cell treatment, the DMSO concentration in DMEM medium (containing 1% serum) was adjusted to 0.1%. As a positive compound, rosiglitazone (trade name, manufactured by ALEXIS Corporation, Switzerland) was used. The percentage (%) of the luciferase activity of the each test compound (1 to 30 μmol/L) was calculated when the luciferase activity of rosiglitazone (3 to 10 μmol/L) is 100% and the luciferase activity in the absence of the test compound is 0%. The 50% effective concentration of the test compound (EC50, 50% effect concentration) was calculated by using SAS Preclinical Package Ver 5.0 (trade name, manufactured by SAS institute Japan Co., Tokyo, Japan), which is a statistical analysis program.

| Compound | inhibition at 0.1 µM [1] [%] | % MAX vs Rosiglitazone (maximum activity strength relative to the maximum activity of rosiglitazone) (human PPARγ2) [%] | EC50 (human PPARγ2) [nM] |
| --- | --- | --- | --- |
| CCCc1nc(C(C)C)n(-c2ncc(OCC)cn2)c(=O)c1Cc1ccc(-c2ccccc2-c2noc(=O)[nH]2)nc1 [Example 40, 3-{2-{5-{[1-(5-ethoxypyrimidin-2-yl)-2-isopropyl-6-oxo-4-propyl-1,6-dihydropyrimidin-5-yl]methyl}pyridin-2-yl}phenyl}-1,2,4-oxadiazol-5(4H)-one] | 68.3 | 69 | 400 |
| CCCc1nc(C2CC2)n(-c2ncc(OCC)cn2)c(=O)c1Cc1ccc(-c2ccccc2-c2noc(=O)[nH]2)nc1 [Example 41, 3-{2-{5-{[2-cyclopropyl-1-(5-ethoxypyrimidin-2-yl)-6-oxo-4-propyl-1,6-dihydropyrimidin-5-yl]methyl}pyridin-2-yl}phenyl}-1,2,4-oxadiazol-5(4H)-one] | 89.9 | 65 | 560 |
| CCCCCc1nc(C(C)C)n(-c2ncc(OCC)cn2)c(=O)c1Cc1ccc(-c2ccccc2-c2noc(=O)[nH]2)nc1 [Example 42, 3-{2-{5-{[1-(5-ethoxypyrimidin-2-yl)-2-isopropyl-6-oxo-4-pentyl-1,6-dihydropyrimidin-5-yl]methyl}pyridin-2-yl}phenyl}-1,2,4-oxadiazol-5(4H)-one] | – | 53 | 650 |
| CCCCCc1nc(C2CC2)n(-c2ncc(OCC)cn2)c(=O)c1Cc1ccc(-c2ccccc2-c2noc(=O)[nH]2)nc1 [Example 43, 3-{2-{5-{[2-cyclopropyl-1-(5-ethoxypyrimidin-2-yl)-6-oxo-4-pentyl-1,6-dihydropyrimidin-5-yl]methyl}pyridin-2-yl}phenyl}-1,2,4-oxadiazol-5(4H)-one] | – | 42 | 590 |
| CCCc1nc2c(C)cc(-c3nc4ccccc4n3C)cc2n1Cc1ccc(-c2ccccc2C(=O)O)cc1 [telmisartan, reference compound] | 85.3 | – | – |
